The values below come from US4356165A, “Bupropion radioimmunoassay, and kit” (Burroughs Wellcome Co., priority 1980, dated 1982).

For the assay, the system named is antisera raised by presenting a suitable bupropion variant-carrier material conjugate. In words: Competition of bupropion with radiolabeled bupropion or competitor for binding to antisera. As for the experimental part: Samples of six standard solutions of bupropion in blank plasma having concentrations of 0.39 to 50 ng/ml) are pipetted (0.1 ml each) in duplicate into 12×75 mm plastic tubes. Duplicate non-specific binding (no antibody) and maximum binding tubes (no unlabeled bupropion) receive 0.1 ml blank plasma. Spiked plasma controls at several concentrations of (e.g., 1.0, 10.0, and 100 ng/ml) and plasma samples for assay (diluted into the standard range with blank plasma if necessary) are assayed in duplicate. After being placed in an ice bath, all tubes receive (in order) 0.2 ml ^3 H bupropion (416 pg. containing approximately 10^4 cpm) and 0.7 ml anti-bupropion serum (raised to a ring-functionalized immunogen according to the present invention) (at pre-determined dilutions such that approximately 40% of the ^3 H bupropion added is bound), both in assay buffer (0.05 M phosphate-bufferedisotonic saline, containing 0.01 M EDTA and 0.1% gelatin, pH 7.0). […] The supernatants, containing antibody-bound ^3 H bupropion are carefully decanted into liquid scintillation cocktail for quantitation of ^3 H. After counts (minus average non-specific binding cpm) are expressed as percentages of average maximum binding cpm, bupropion concentrations in plasma samples and spiked controls are read from a standard curve (log concentration vs percent average maximum binding).

`CC(NC(C)(C)C)C(=O)c1cccc(Cl)c1` (racemic) [bupropion, (±)-2-tert-butylamino-3'-chloropropiophenone]: the “competition with radiolabeled bupropion or radiolabeled competitor for binding to antisera” value is given as “successfully compete”.
